Data as given in patent US8017584B2, “GD3-mimetic peptides” (Otsuka Pharmaceutical Co., Ltd., priority 2000, dated 2011).
Several values for one entry are separate records, joined by “and”; a condition that tells them apart may be missing. Equal values may be shown once.

Key:
[1] = Titer against GD3 (ELISA) of antiserum from mice immunized with MAP peptides (Example 4); assay type: in vivo, mice (C57BL/6); settings: individual mice
Procedure: Four species of GD3-mimetic peptide (MAP) obtained in Example 3 (2) was dissolved in PBS so as to attain a concentration of 200 μg/mL. The solution was added to Freund's complete (or incomplete) adjuvant (1:1, by volume), to thereby prepare an emulsion.
Eight mice (C57BL/6) were immunized by subcutaneous administration of the above emulsion (0.2 mL/mouse, in one administration, […]). Administration was performed every two weeks (for the second and subsequent administrations, Freund's incomplete adjuvant was used). After one week following respective administrations, blood was collected from the tail of each mouse, to thereby yield antiserum.
The antiserum obtained directly after the first administration will be referred to “1-st,” that obtained after the second administration will be referred to “2-nd,” and that obtained after the third administration will be referred to “3-rd.”
The titer, against GD3, of each of the antiserum samples (3×8 mice=24 samples) obtained in the (1) above was measured through ELISA as described below.
The thus-obtained purified GD3 was dissolved in methanol, whereby a GD3 solution having a concentration of 10 μg/mL was prepared. The GD3 solution was added to the wells of a 96-well micro-titer plate in amounts of 10 μL per well (which corresponds to 100 ng GD3 per well), and methanol was evaporated. Subsequently, a blocking solution (TBS supplemented with 1% BSA) was added to the wells in amounts of 50 μL per well, for blocking at 37° C. for 4 hours.
The supernatant was discarded. Each of the antiserum samples obtained in (1) above was diluted 100-fold, 400-fold, or 1,600 fold with the above-mentioned blocking solution. The diluted antiserum (50 μL) was added to each well for reaction at 4° C. overnight. The well was washed six times with TBS, and thereafter, HRP-labeled […] diluted 5,000-fold with the blocking solution was added (50 μL per well) for reaction for 2 hours at room temperature. The well was washed four times with TBS, and thereafter, enzymatic activity (peroxidase) of the well was detected with TMB solution (50 μL). The reaction was stopped with 1N HCl (50 μL), and the value corresponding to “420 nm-620 nm” was calculated.
A control sample was prepared as follows. […] The synthesized peptide was administered to a mouse for immunization, and the obtained antiserum served as a control sample. The titer of the control sample was obtained in a manner similar to that described above. (However, the number of provided mice was five, and only a 100-fold diluted solution was used.) This control peptide sample was also used in the form of MAP as described above.

[2] = system: T-cell-rich lymphocytes / IL-2-dependent CTLL2 cells; assay: Cell response test: IL-2 activity (3H thymidine up-take of CTLL2 cells) in supernatant of spleen cells of mice immunized with GD3; assay type: cell-based, mouse; settings: mice immunized with GD3
Procedure: Similar to the case of immunization with R4-KLH, antiserum samples were also prepared through immunization with GD3 (30 μg).
The spleen aseptically removed from each of the above-immunized mice was minced in a 10% FCS-supplemented RPMI 1640 medium. By use of a nylon wool column, T-cell-rich lymphocytes were prepared and the cells were counted. The above medium containing the cells in an amount of 10^5 cells per 150 μL was added to each of the wells of a culture plate. PHA was added so as to attain a final concentration of 1 μg/mL. A peptide of the present invention or any of different gangliosides in PBS was added, and the mixture was incubated for 96 hours. A supernatant (100 μL) was obtained from each well. The IL-2 activity of the supernatant was determined through use of IL-2-dependent mouse cells, CTLL2. Briefly, the supernatant (100 μL) diluted 2 to 50-fold with a medium was added to the wells in an amount of 10^4 CTLL2 cells/well, followed by incubation at 37° C. for 48 hours. Subsequently, 3H-thymidine (0.5 μCi) was added to each well, followed by incubation for 6 hours. CTLL2 cells were recovered on a paper filter and counted for 3H.

Anti-OAcGD3 antibody = assay: ELISA of immobilized MAP-form peptides with control anti-OAcGD3 antibody; assay type: binding; settings: MAP form 100 ng/well
Procedure: A 0.1M NaHCO3 solution containing a GD3-mimetic peptide of the invention in the above MAP form (100 ng/100 μL) was added to the wells of a 96-well micro-titer plate, for immobilization at room temperature for one hour. Subsequently, in a manner similar to the ELISA method employed in Example 2, binding affinity of the GD3-mimetic peptide to GD3 antibody 4F6 was investigated.
Anti-GD2 antibody and anti-OAcGD3 antibody (Cerato, E., et al., Hybridoma, 16(4), 307-316 (1997)) were used as controls (these antibodies were kindly provided by from Dr. Portoukalian).

[3] = antiserum 1st (after first administration), dilution factor 1/100, MAP 5 μg/mouse s.c.
[4] = antiserum 1st, dilution factor 1/400
[5] = antiserum 1st, dilution factor 1/1600
[6] = antiserum 2nd (after second administration), dilution factor 1/100
[7] = antiserum 2nd, dilution factor 1/400
[8] = antiserum 2nd, dilution factor 1/1600
[9] = antiserum 3rd (after third administration), dilution factor 1/100
[10] = antiserum 3rd, dilution factor 1/400
[11] = antiserum 3rd, dilution factor 1/1600
[12] = stimulant 1 μg/ml, supernatant dilution 1/20
[13] = stimulant 1 μg/ml, supernatant dilution 1/50
[14] = stimulant 1 μg/ml, supernatant dilution ½
[15] = stimulant 1 μg/ml, supernatant dilution ⅕
[16] = stimulant 2 μg/ml, supernatant dilution 1/20
[17] = stimulant 2 μg/ml, supernatant dilution 1/50
[18] = stimulant 2 μg/ml, supernatant dilution ½
[19] = stimulant 2 μg/ml, supernatant dilution ⅕
[20] = stimulant 5 μg/ml, supernatant dilution 1/20
[21] = stimulant 5 μg/ml, supernatant dilution 1/50
[22] = stimulant 5 μg/ml, supernatant dilution ½
[23] = stimulant 5 μg/ml, supernatant dilution ⅕

| Sequence | reactivity of antiserum with GD3 (ELISA absorbance) [1, 3] | reactivity of antiserum with GD3 (ELISA absorbance) [1, 4] | reactivity of antiserum with GD3 (ELISA absorbance) [1, 5] | reactivity of antiserum with GD3 (ELISA absorbance) [1, 6] | reactivity of antiserum with GD3 (ELISA absorbance) [1, 7] | reactivity of antiserum with GD3 (ELISA absorbance) [1, 8] | reactivity of antiserum with GD3 (ELISA absorbance) [1, 9] | reactivity of antiserum with GD3 (ELISA absorbance) [1, 10] | reactivity of antiserum with GD3 (ELISA absorbance) [1, 11] | 3H Thymidine up-take into CTLL2 cells, mean ± SE (4 wells) [2, 12] | 3H Thymidine up-take into CTLL2 cells, mean ± SE (4 wells) [2, 13] | 3H Thymidine up-take into CTLL2 cells, mean ± SE (4 wells) [2, 14] | 3H Thymidine up-take into CTLL2 cells, mean ± SE (4 wells) [2, 15] | 3H Thymidine up-take into CTLL2 cells, mean ± SE (4 wells) [2, 16] | 3H Thymidine up-take into CTLL2 cells, mean ± SE (4 wells) [2, 17] | 3H Thymidine up-take into CTLL2 cells, mean ± SE (4 wells) [2, 18] | 3H Thymidine up-take into CTLL2 cells, mean ± SE (4 wells) [2, 19] | 3H Thymidine up-take into CTLL2 cells, mean ± SE (4 wells) [2, 20] | 3H Thymidine up-take into CTLL2 cells, mean ± SE (4 wells) [2, 21] | 3H Thymidine up-take into CTLL2 cells, mean ± SE (4 wells) [2, 22] | other results |
| --- | --- | --- | --- | --- | --- | --- | --- | --- | --- | --- | --- | --- | --- | --- | --- | --- | --- | --- | --- | --- | --- |
| PHFDSLLYPCELLGC (PHFDSLLYPCQLLGC) [GD3R2, tested as phage clone, MAP form or peptide] | 0.042 and 0.114 and 0.087 and 0.155 and 0.076 and 0.084 and 0.316 and 0.062 | 0.031 and 0.068 and 0.05 and 0.078 and 0.055 and 0.044 and 0.252 and 0.035 | 0.053 and 0.028 (2×) and 0.045 and 0.014 and 0.034 and 0.179 and 0.022 | 0.183 and 0.135 and 0.142 and 0.131 and 0.115 and 0.072 and 0.069 and 0.34 | 0.078 and 0.049 and 0.071 and 0.034 and 0.091 and 0.039 and 0.047 and 0.241 | 0.039 and 0.035 and 0.025 and 0.016 (2×) and 0.033 and 0.034 and 0.13 | 0.08 and 0.053 and 0.057 and 0.184 and 0.09 and 0.05 and 0.098 and 0.113 | 0.075 and 0.053 and 0.084 and 0.161 and 0.089 and 0.059 and 0.086 and 0.099 | 0.023 (2×) and 0.014 and 0.008 and 0.053 and 0.028 and 0.012 and 0.036 | 792 ± 88 | 185 ± 31 | 2957 ± 326 | 1784 ± 164 | 856 ± 107 | 192 ± 40 | 3057 ± 321 | 1719 ± 184 | 931 ± 124 | 203 ± 36 | 3022 ± 316 | 3H Thymidine up-take into CTLL2 cells, mean ± SE (4 wells) [2, 23]: 1717 ± 198; ELISA absorbance, Anti-OAcGD3 antibody (Anti-OAcGD3 antibody; Serum % 12.50%): 0.021; ELISA absorbance, Anti-OAcGD3 antibody (Anti-OAcGD3 antibody; Serum % 25%): 0.023; ELISA absorbance, Anti-OAcGD3 antibody (Anti-OAcGD3 antibody; Serum % 50%): 0.027; ELISA absorbance, Anti-OAcGD3 antibody (Anti-OAcGD3 antibody; Serum % 100%): 0.038 |
| LAPPRPRSELVFLSV (LAPPRPRSQLVFLSV) [GD3R1, tested as phage clone, MAP form or peptide] | 0.047 and 0.106 and 0.03 and 0.055 and 0.059 and 0.061 and 0.034 and 0.052 | 0.026 and 0.057 and 0.024 and 0.052 and 0.034 and 0.027 and 0.017 and 0.039 | 0 (3×) and 0.005 and 0.008 and 0.016 and 0.004 and 0.007 | 0.087 and 0.14 and 0.188 and 0.102 and 0.117 and 0.168 and 0.054 and 0.082 | 0.027 and 0.063 and 0.088 and 0.074 and 0.047 and 0.06 and 0.039 and 0.026 | 0.016 and 0.022 and 0.034 and 0.019 (2×) and 0.014 and 0.024 and 0.01 | 0.068 and 0.066 and 0.084 (2×) and 0.139 and 0.121 and 0.08 and 0.023 | 0.019 and 0.017 and 0.03 (2×) and 0.054 and 0.021 and 0.051 and 0.01 | 0 (2×) and 0.002 and 0.008 and 0.003 (2×) and 0.001 and 0.004 | 888 ± 107 | 234 ± 43 | 3014 ± 671 | 1967 ± 276 | 906 ± 121 | 246 ± 38 | 3219 ± 546 | 1831 ± 259 | 942 ± 116 | 251 ± 44 | 3344 ± 497 | 3H Thymidine up-take into CTLL2 cells, mean ± SE (4 wells) [2, 23]: 1956 ± 285; ELISA absorbance, Anti-OAcGD3 antibody (Anti-OAcGD3 antibody; Serum % 12.50%): 0.04; ELISA absorbance, Anti-OAcGD3 antibody (Anti-OAcGD3 antibody; Serum % 25%): 0.041; ELISA absorbance, Anti-OAcGD3 antibody (Anti-OAcGD3 antibody; Serum % 50%): 0.046; ELISA absorbance, Anti-OAcGD3 antibody (Anti-OAcGD3 antibody; Serum % 100%): 0.053 |
